pEC50, pIC50: −log10 of the molar value. Like-named read-outs stand apart in the source and are kept apart here.
What was measured:
[1] = biological target: T1, HIV IN (Human immunodeficiency virus type 1 group M subtype B, UniProt P12497); details: read-out: IC50 active site directed strand transfer assay; cited from earlier work
[2] = system: LEDGF site of HIV IN; set-up: method as in PMID 21767569; details: read-out: IC50 AS assay for binding at the LEDGF site; cited from earlier work
[3] = biological target: T2, His6-tagged HIV IN / Flag-tagged LEDGF interaction (Human immunodeficiency virus type 1 group M subtype B, UniProt P12497); assay: IN-LEDGF AlphaScreen (AS) assay; type: binding, HIV-1; details: 30 nM IN, 30 nM Flag-LEDGF, 30°C
T2 construct: Hexa-His tagged full length HIV IN was expressed and purified as follows; made in house; host or cells: E. coli BL21(DE3), pET28b(+)
Procedure: (§1) For the IN-LEDGF AS assay, compound dilutions and His6-tagged IN (30 nM final concentration) were initially incubated together in 10 µl of reaction buffer (25 mM Tris-Cl pH 7.5, 25 mM NaCl, 5 mM MnCl2, 5 mM MgCl2, 5 mM BME, 50 µg/ml bovine serum albumin and 0.05% (v/v) Tween-20) for 10 min at room temperature in AlphaPlate™-384 SW plates (Perkin-Elmer). Subsequently, 10 µl reaction buffer containing Flag-tagged LEDGF (30 nM final concentration), AS Ni-chelate donor beads (Perkin-Elmer; 5 µg/ml final) and AlphaLISA anti-FLAG acceptor beads (Perkin-Elmer; 5 µg/ml final) were added and protein association allowed to occur for 1 hour in the dark at 30°C before emission from the donor beads was measured using a PHERAstar FS plate-reader (BMG Labtech). Counter screen assays to ensure the compounds were not inhibiting the binding of the His or FLAG tags to the beads or quenching of the signal, were performed under the same reaction conditions except that a Flag-His6 fusion protein was used (20 nM final) instead of individual His6-tagged IN and Flag-tagged LEDGF proteins, and the initial 10 min incubation at room temperature was omitted.

[4] = biological target: T3, HIV integrase catalytic core domain core3H (C56S, F139D, F185H) (Human immunodeficiency virus type 1 group M subtype B, UniProt P12497, C1203S/F1286D/F1332H); assay: SPR binding to core3H; details: construct not given
T3 construct: catalytic core domain (CCD) IN (residues 50 to 210) containing the mutations C56S, F139D and F185H (core3H); made in house; host or cells: E. coli, pET28b(+)
Procedure: Core3H and core4H proteins (∼3×10^−8 moles) were “minimally” biotinylated on ice for 2 hours using an equimolar concentration of EZ-Link® Sulfo-NHS-LC-LC-Biotin (Pierce). To remove unreacted biotin reagent, biotinylated proteins were passed through a Superdex 75 (10/300 GL) column equilibrated in ‘SPR capture’ buffer (50 mM HEPES pH 7.4, 150 mM NaCl, 0.05% (v/v) Tween20, 5 mM DTT, 10 mM MgCl2). The eluted proteins were stored frozen in 50 µl aliquots at −70°C. Streptavidin (Sigma) was immobilized at 25°C onto a CM7 sensor chip (GE Healthcare) docked in a Biacore T200 upgrade instrument (GE Healthcare) using a previously described procedure resulting in immobilization levels of approximately 12000 RU of protein being coupled in all flow cells. The biotinylated core IN proteins were captured onto a Streptavidin chip surface in SPR capture buffer by injecting at 5 µL/min for 5 min over a single flow cell, typically resulting in immobilization of approximately 2300 RU of target protein. A minimally-biotinylated tyrosine kinase domain of CSF-1-R was captured (∼4300 RU) in a separate flow cell to provide for an unrelated negative control. […] All SPR binding experiments were performed at 20°C in SPR binding buffer (50 mM HEPES pH 7.4, 150 mM NaCl, 0.05% (v/v) Tween20, 5 mM DTT, 10 mM MgCl2, 5% (v/v) DMSO). Small molecules stock solutions were serially diluted (2-fold) in SPR binding buffer and injected for 30 sec contact time at 60 µL/min and then allowed to dissociate for 60 sec. The entire concentration series for each compound was performed in triplicate.
Raw sensorgram data were processed, solvent corrected and double referenced using Scrubber software (BioLogic Software, Australia). For easy comparison between data sets, all experiments were normalized using a normalization formula of Giannetti et al. To determine the binding affinity (KD), responses at equilibrium for each analyte were fitted to a 1∶1 steady state affinity model available within Scrubber.

[5] = Cell toxicity counter screen of virus infectivity assay; type: cell-based; details: human, HuT78 cells
Procedure: (§2) HuT78 cells were seeded into 96 well microtiter plates at 50,000 cells per 50 µl per well in RF-10 containing 2 µg/ml polybrene (RF-10/2). Compounds were prepared to 4× final concentration in RF-10/2, and 30 µl was added to cells. HIV-1NL4–3 (40 µl in RF-10/2 containing 1600 plaque forming units (pfu)) was added to each well or 40 µl of RF-10/2 was added to the negative controls, and when assaying compound cytotoxicity. pfu were determined by titrating virus stocks on HT4LacZ cells as described by Rocancourt et al. After 24 hours, an additional 90 µl of media or media containing 1× compound was added to each well. At 4 days post-infection, 100 µl of media was removed from each well and replaced with 100 µl of fresh media with or without compound. 48 hours later supernatants were harvested and levels of extracellular p24 determined. Supernatants were diluted 1 in 10,000 and p24 levels assayed using the Vironostika p24 assay kit.

[6] = system: HIV-1NL4-3; assay: Virus infectivity assay (p24) in HuT78 cells; type: cell-based; details: Human immunodeficiency virus 1, p24 production
Procedure: as §2

[7] = biological target: T1, HIV IN; assay: Strand transfer assay which did not contain LEDGF; type: biochemical; details: without LEDGF; data not shown
[8] = system: Flag-His6 fusion protein; assay: AlphaScreen counter screen; details: Flag-His6 fusion protein 20 nM
Procedure: as §1, with “omitted. The specificity of FLAG-LEDGF for IN binding was confirmed by competing the FLAG-LEDGF with untagged LEDGF. At a 1∶1 molar ratio with FLAG-LEDGF, untagged LEDGF reduced the AS signal by 50%.” for “omitted.”

[9] = system: HIV-1 with IN N155H/E92Q (NHEQ); assay: Single-round infectivity assay in 293T cells, IN NHEQ mutant; type: cell-based; details: Human immunodeficiency virus 1, HEK-293T, read-out: EC50 cell infectivity assay, IN NHEQ
Procedure: (§3) Single-round infectivity assays were performed with 293T cells. […]. […] Culture supernatants containing VSV-G pseudotyped virions were harvested 64 hours post-transfection, clarified by centrifugation to remove cell debris, and stored at −80°C. HIV IN mutations known to confer resistance to published IN inhibitors were prepared by site directed mutagenesis of the pol (IN) gene in a shuttle vector which contained the majority of the HIV gag and pol sequence. The mutated IN coding region was then sequence verified and exchanged for the wild-type coding sequence in the pHIV env-Luc reporter virus plasmid. Single round infection assays were conducted in 293T cells seeded in 96 well plates 16 hours prior to compound addition. Compounds were pre-incubated with cells for 4 hours at 37°C followed by the addition of sufficient virus to generate approximately 10,000 Luciferase light units in the absence of compound. Luciferase readout was measured 48 hours post-infection using the Bright-Glo™ reagent (Promega) according to the manufacturer’s instructions.

[10] = system: HIV-1 with IN Q148H/G140S (QHGS); assay: Single-round infectivity assay in 293T cells, IN QHGS mutant; type: cell-based; details: Human immunodeficiency virus 1, HEK-293T, read-out: EC50 cell infectivity assay, IN QHGS
Procedure: as §3

[11] = system: LEDGF interaction with IN; set-up: method as in PMID 20473303; details: read-out: AS IC50; cited from earlier work
[12] = biological target: T1, HIV IN; details: read-out: IC50 inhibition of strand transfer activity of HIV IN; cited from earlier work
[13] = system: HIV-1; set-up: method as in PMID 20473303; details: PBMC cells; read-out: EC50 HIV-1 infection of PBMC cells; cited from earlier work
[14] = system: HIV-1; set-up: method as in PMID 20473303; details: MT-4 cells; read-out: EC50 HIV-1 infection of MT-4 cells; cited from earlier work
[15] = biological target: T1, HIV IN; details: cited from earlier work
[16] = biological target: T1, HIV IN; details: read-out: IC50 strand transfer; cited from earlier work
[17] = system: HIV-1 with wild type IN; assay: Single-round infectivity assay in 293T cells, wild type IN; type: cell-based; details: Human immunodeficiency virus 1, HEK-293T, read-out: EC50 cell infectivity assay, wild type IN
Procedure: as §3

O=C(O)C(O)=CC(=O)c1cn(Cc2ccc(F)cc2)c2cccc(O)c12 [CHI-1043, 4-[1-(4-Fluorobenzyl)-4-hydroxy-1H-indol-3-yl]-2-hydroxy-4-oxobut-2-enoic acid]
pIC50 [1]: 6.85
pIC50 [2]: 4.44

O=C1Cc2ccccc2/C1=C\c1ccc2c(c1C(=O)O)OCO2 [Compound 2]
pIC50 [3]: 3.70

O=C(O)c1c(/C=C2\c3ccccc3CC2O)ccc2c1OCO2 (stereo not shown) [Compound 3]
pIC50 [3]: 3.57

O=C(O)c1c(CN2Cc3ccccc3C(=O)N(Cc3ccccc3)C2)ccc2c1OCO2 [Compound 4]
pIC50 [3]: 3.96
binding in the SPR assay (in words) [4]: did not bind
CC50 at 6 days [5]: 265 µM
pEC50 [6]: 3.56

COc1ccc(CN2CN(Cc3ccc4c(c3C(=O)O)OCO4)Cc3ccccc3C2=O)cc1 [Compound 5]
pIC50 [3]: 3.22

COc1ccc(CNC(=O)c2ccccc2CNCc2ccc3c(c2C(=O)O)OCO3)cc1 [Compound 6]
pIC50 [3]: 3.57
binding in the SPR assay (in words) [4]: binding could not be detected

COc1ccc(CNC(=O)c2ccccc2CN(C)Cc2ccc3c(c2C(=O)O)OCO3)cc1 [Compound 7]
pIC50 [3]: 3.66

CN(Cc1ccccc1C(=O)NCC1CCCCC1)Cc1ccc2c(c1C(=O)O)OCO2 [Compound 8]
pIC50 [3]: 4.00
binding in the SPR assay (in words) [4]: loss of SPR activity

C=CCN(Cc1ccccc1C(=O)NCc1ccc(OC)cc1)Cc1ccc2c(c1C(=O)O)OCO2 [Compound 9]
pIC50 [3]: 3.09
binding in the SPR assay (in words) [4]: retained SPR activity

C=CCN(Cc1ccccc1C(=O)NC(CCC)c1ccc(OC)cc1)Cc1ccc2c(c1C(=O)O)OCO2 (stereo not shown) [Compound 10]
activity in strand transfer assay [7]: inactive
pIC50 [8]: 3.76
pIC50 [3]: 4.54

C=CCN(Cc1ccccc1C(=O)NC(c1ccc(OC)cc1)c1ccc(OC)cc1)Cc1ccc2c(c1C(=O)O)OCO2 [Compound 11]
activity in strand transfer assay [7]: inactive
pEC50 [9]: 4.43
pEC50 [10]: 4.27
pIC50 [8]: 3.84
CC50 at 6 days [5]: > 100 µM
pEC50 [6]: 4.54

CCCC(C(=O)O)c1c(C)nc2ccc(Cl)cc2c1-c1ccccc1 (stereo not shown) [LEDGIN-6]
pIC50 [11]: 5.86
pIC50 [12]: 4.71
pEC50 [13]: 5.46
pEC50 [14]: 5.56

O=C(NCC1CCCCC1)c1cc(S(=O)(=O)N2CCCCC2)cc(O)c1O [N-(cyclohexylmethyl)-2,3-dihydroxy-5-(piperidin-1-ylsulfonyl) benzamide]
pIC50 [15]: 5.10
pIC50 [16]: 4.72

Cc1nnc(C(=O)NC(C)(C)c2nc(C(=O)NCc3ccc(F)cc3)c(O)c(=O)n2C)o1 [raltegravir, reference compound]
pEC50 [9]: < 6.00
pEC50 [10]: < 6.00
pEC50 [17]: 8.00

— publication PMC3393750, “Small Molecule Inhibitors of the LEDGF Site of Human Immunodeficiency Virus Integrase Identified by Fragment Screening and Structure Based Design” (PLoS ONE, 2012)
